≈ marks a conversion by molar mass, not a printed value.
Compound | solubility (25 °C) | solubility (20 °C) | other results
O=C(O)CCC(=O)OC[C@@H](NC(=O)C(Cl)Cl)[C@H](O)c1ccc([N+](=O)[O-])cc1 | – | – | solubility (27 °C): 8.27 mM (≈ 3500 µg/mL)
CC(=O)N[C@@H](C(=O)O)C(C)C (racemic) | 354 mM (≈ 56400 µg/mL) | – | –
OCc1ccc(O)cc1 | – | 54 mM (≈ 6700 µg/mL) | –
CCCCCCCCOCCO | 7.5 mM (≈ 1310 µg/mL) | – | –
O=C(O)CCCP(=O)(O)O | – | 3170 mM (≈ 533000 µg/mL) | –
CCOC(=O)N(C)CC | – | – | solubility: 381 mM (≈ 50000 µg/mL)
CN1c2ccccc2C(O)(c2ccccc2)c2ccccc21 | 0.125 mM (≈ 35.9 µg/mL) | – | –
CCOCCOC(=O)CCCCC(=O)OCCOCC | – | – | solubility: 8.61 mM (≈ 2500 µg/mL)
C#CC#CC=C=CCCO | 12.9 mM (≈ 1700 µg/mL) | – | –
CCCCOC(=O)C(C)OC(=O)C(C)O (stereo unspecified) | 42.2 mM (≈ 9200 µg/mL) | – | –
O=C(O)c1ccccc1C1OC(=O)c2ccccc21 (stereo unspecified) | – | – | solubility (23 °C): 0.787 mM (≈ 200 µg/mL)
Cc1cc(O)c(C(=O)O)c(O)c1 | – | 8.92 mM (≈ 1500 µg/mL) | –
CN[C@@H](Cc1ccc(O)cc1)C(=O)O | – | 7.37 mM (≈ 1440 µg/mL) | –
CCCCC1(CCCC)C(=O)NC(=O)NC1=O | – | 1.33 mM (≈ 320 µg/mL) | –
CC(=O)c1cc(O)c(O)c(O)c1 | 33.8 mM (≈ 5680 µg/mL) | – | –
Sc1nnc(S)s1 | – | 176 mM (≈ 26400 µg/mL) | –
NC(=O)c1ccc(S(N)(=O)=O)cc1 | 4.99 mM (≈ 1000 µg/mL) | – | –
COS(=O)(=O)c1ccccc1 | 18.1 mM (≈ 3120 µg/mL) | – | –
Cn1cnc2c1c(=O)n(CC(=O)O)c(=O)n2C | 42 mM (≈ 10000 µg/mL) | – | –
CCCCCCC(O)C(O)C(=O)O (stereo unspecified) | – | 28.4 mM (≈ 5400 µg/mL) | –
O/N=C1\C=CCCC1 | – | 146 mM (≈ 16200 µg/mL) | –

Compound | solubility (25 °C) | solubility (20 °C) | other results
CN1c2ccccc2Sc2ccccc21 | – | 0.00255 mM (≈ 0.544 µg/mL) | –
CCCC[C@H](O)C(C)C | 15.4 mM (≈ 2010 µg/mL) | – | –
CCC1(CC(C)=O)C(=O)NC(=O)NC1=O | – | – | solubility: 171 mM (≈ 36400 µg/mL)
CC(=O)NC(=O)NC(C)=O | 486 mM (≈ 70000 µg/mL) | – | –
COc1ccc(NCC(O)CO)cc1 (stereo unspecified) | – | – | solubility: 507 mM (≈ 100000 µg/mL)
CC(C)[C@@H](Br)C(=O)O | 78.9 mM (≈ 14300 µg/mL) | – | –
CCS(=O)(=O)CI | – | – | solubility: 107 mM (≈ 25000 µg/mL)
O=C(O)CCC(=O)c1ccc2ccccc2c1 | 0.14 mM (≈ 32 µg/mL) | – | –
NP(N)(=O)c1ccccc1 | 71.1 mM (≈ 11100 µg/mL) | – | –
O=C(O)CNC(=O)CNS(=O)(=O)c1ccc2ccccc2c1 | – | 2.02 mM (≈ 650 µg/mL) | –
O=[N+]([O-])Cc1ccc2ccccc2n1 | – | 8.82 mM (≈ 1660 µg/mL) | –
CC(O)C(C)Cl (stereo unspecified) | – | 613 mM (≈ 66600 µg/mL) | –
O=C(O)CCC[Se][Se]CCCC(=O)O | 5.66 mM (≈ 1880 µg/mL) | – | –
CCCCCCC(C(=O)O)C(=O)O | 22 mM (≈ 4150 µg/mL) | – | –
CCCc1ncnc2c(O)cccc12 | – | 1.2 mM (≈ 226 µg/mL) | –
CC(C)[C@@H]1NC(=O)CNC1=O | – | – | solubility: 128 mM (≈ 20000 µg/mL)
c1ccc2c3c(ccc2c1)Sc1ccc2ccccc2c1N3 | – | 1.24e-05 mM (≈ 0.0037 µg/mL) | –
O=C(O)C1=CCCCC1 | – | 55.5 mM (≈ 7000 µg/mL) | –
CC(=O)Oc1ccccc1/C=C/C(=O)O | 0.698 mM (≈ 144 µg/mL) | – | –
Nc1ccncc1 | – | 885 mM (≈ 83300 µg/mL) | –

Source: the OPERA property sets (Mansouri et al. 2018)
